For the experiment, the target named is T1, AlaRS N71Y binding to Nrp1 (Homo sapiens, UniProt P49588, N71Y).
T1 construct: expressed in transfected cells
T1 sequence (P49588 1-968 N71Y): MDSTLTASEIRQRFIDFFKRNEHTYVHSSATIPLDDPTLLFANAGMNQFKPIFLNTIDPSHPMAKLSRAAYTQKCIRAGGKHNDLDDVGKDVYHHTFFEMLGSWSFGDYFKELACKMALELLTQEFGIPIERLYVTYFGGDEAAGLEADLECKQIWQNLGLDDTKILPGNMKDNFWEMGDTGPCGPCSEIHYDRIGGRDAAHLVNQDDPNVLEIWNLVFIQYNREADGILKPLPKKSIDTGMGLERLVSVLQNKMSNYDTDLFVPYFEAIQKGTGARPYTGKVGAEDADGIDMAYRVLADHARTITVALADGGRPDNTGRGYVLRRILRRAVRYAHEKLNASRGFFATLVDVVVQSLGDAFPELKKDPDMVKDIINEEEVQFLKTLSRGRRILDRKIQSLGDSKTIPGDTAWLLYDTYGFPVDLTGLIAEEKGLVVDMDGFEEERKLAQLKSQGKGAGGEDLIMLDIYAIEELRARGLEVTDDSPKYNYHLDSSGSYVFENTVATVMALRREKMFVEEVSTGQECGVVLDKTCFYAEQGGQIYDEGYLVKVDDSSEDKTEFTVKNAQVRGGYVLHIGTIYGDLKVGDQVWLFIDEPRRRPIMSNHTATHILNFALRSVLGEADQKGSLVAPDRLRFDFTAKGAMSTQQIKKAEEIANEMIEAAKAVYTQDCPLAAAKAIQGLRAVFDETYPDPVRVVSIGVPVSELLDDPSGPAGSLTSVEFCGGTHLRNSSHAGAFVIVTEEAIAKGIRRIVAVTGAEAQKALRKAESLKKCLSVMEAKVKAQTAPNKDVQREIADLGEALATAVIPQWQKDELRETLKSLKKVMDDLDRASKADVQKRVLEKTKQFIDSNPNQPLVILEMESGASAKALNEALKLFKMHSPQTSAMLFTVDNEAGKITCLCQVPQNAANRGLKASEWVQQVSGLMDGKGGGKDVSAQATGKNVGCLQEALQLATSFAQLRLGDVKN
Briefly: Co-IP of HA-AlaRS mutant with Nrp1 in transfected cells. Conditions: 20 µM Tanshinone I for 24 h, ImageJ, average of three repeats. Type of experiment: cell-based.

The values that follow come from paper PMC11509018, “Evaluation of the Role of Tanshinone I in an In Vitro System of Charcot-Marie-Tooth Disease Type 2N” (International Journal of Molecular Sciences, 2024).

Turning to `Cc1coc2c1C(=O)C(=O)c1c-2ccc2c(C)cccc12` [Tanshinone I], the “Mean density band (N71Y), relative quantification of AlaRS mutant immunoprecipitated” value is 0.60.
